# From patent US11952611B2, “Methods and systems for detection of antibiotic resistance” (Laboratory Corporation of America Holdings, priority 2017, dated 2024)
# Experiments:
# Type in all cases: cell-based, Staphylococcus aureus
# MRSA = assay: Optimization of cefoxitin concentration (Table 2), MRSA strains
# Experimental: Bacterial strains were serially diluted to approximately 1×10^3 CFU/mL and transferred to a 96-well plate at 135 μL per well. 15 μL of cefoxitin was added to the wells to reach a final concentration of 1.4 μg/mL, 1.6 μg/mL, 1.8 μg/mL or 2.0 μg/mL. The plate was then sealed and incubated at 37° C. for 2 hours. 10 μL of recombinant phage (1.6×10^8 pfu/mL) was added to each well. The plate was then re-sealed and incubated at 37° C. for an additional 2 hours. A master mix was made containing 15 μL 5× lysis buffer, 50 μL luciferase assay buffer, and 1 μL luciferase substrate per well. 65 μL of master mix was added to each well. Luminescence from the reactions were read on a GLOMAX® Navigator and relative luminal units (RLU) for each reaction were plotted and analyzed. RLU values three times greater than an established background RLU level for LB (>750 RLU) were considered positive. The results, shown in Table 2, indicate that the recombinant phage are capable of detecting these bacterial strains. […] Positive results are in bold.
# BAA-1720 MRSA = assay: MRSA detection from BD BBL CultureSwabs (Table 4)
# Experimental: Bacterial strains were serially diluted and BD BBL CultureSwabs™ were inoculated with 50 ul of LB with approximately the target number of cells of 1000 CFU, 500 CFU, 250 CFU, 125 CFU, 63 CFU, 31 CFU, 16 CFU, or 8 CFU. Swabs were eluted with 1 mL modified Amies solution (included with commercially available Copan e-Swabs™). 135 μL of the eluted solution was added to each well. 15 μL of cefoxitin was added to the wells to reach a final concentration of 1.8 μg/mL, 3.6 μg/mL, or 5.4 μg/mL. The plate was then sealed and incubated at 37° C. for 2 hours. 10 μL of recombinant phage (1.6×10^8 pfu/mL) was added to each well. The plate was then re-sealed and incubated at 37° C. for an additional 2 hours. A master mix was made containing 15 μL 5× lysis buffer, 50 μL luciferase assay buffer, and 1 μL luciferase substrate per well. 65 μL of master mix was added to each well. Luminescence from the reactions were read on a GLOMAX® Navigator and relative luminal units (RLU) for each reaction were plotted and analyzed. RLU values three times greater than an established background RLU level for modified Amies solution (>1500 RLU) were considered positive. The results, shown in Table 4, indicate that a positive MRSA determination was made with 23 CFU in a well, originating from approximately 125 CFU on a swab when incubated with the previously established cut-off of 1.8 μg/mL. Positive results are highlighted in grey.
# 12600 MSSA = assay: Effect of duration of antibiotic and phage exposure on MSSA signal (Table 5)
# Experimental: Bacterial strains were serially diluted and transferred to a 96-well plate at 135 μL per well. 15 μL of cefoxitin was added to the wells to reach a final concentration of 1.8 μg/mL, 3.6 μg/mL, or 5.4 μg/mL. The plate was then sealed and incubated at 37° C. for 2 hours or 3 hours. 10 μL of recombinant phage (1.6×10^8 pfu/mL) was added to each well. The plate was then re-sealed and incubated at 37° C. for an additional 1 or 2 hours. A master mix was made containing 15 μL 5× lysis buffer, 50 μL luciferase assay buffer, and 1 μL luciferase substrate per well. 65 μL of master mix was added to each well. Luminescence from the reactions was read on a GLOMAX® Navigator and relative luminal units (RLU) for each reaction were plotted and analyzed. RLU values three times greater than an established background RLU level for LB (>750 RLU) were considered positive. The results, shown in Table 5, indicate that the number of MSSA strains producing false-positives at the previously established cut-off of 1.8 μg/mL cefoxitin were reduced with a 3-hour antibiotic/1-hour phage protocol when compared to a 2-hour antibiotic/2-hour phage protocol. A false positive occurred at 541 CFU with the 2-hour antibiotic/2-hour phage protocol. Whereas, the 3-hour antibiotic/1-hour phage protocol produced false positives at 4331 CFU. Positive results are in bold. In Table 5, CFU values (541 CFU and 305 CFU) were experimentally validated by direct plating.
# [1] = strain AR0470 MRSA, detected CFU 314
# [2] = strain BAA-2313 MRSA, detected CFU 192
# [3] = target swab CFU 8, detected CFU 3
# [4] = target swab CFU 16, detected CFU 1
# [5] = target swab CFU 31, detected CFU 4
# [6] = target swab CFU 63, detected CFU 5
# [7] = target swab CFU 125, detected CFU 23
# [8] = target swab CFU 250, detected CFU 28
# [9] = target swab CFU 500, detected CFU 31
# [10] = target swab CFU 1000, detected CFU 76
compound,measurement,setting,value
"CO[C@@]1(NC(=O)Cc2cccs2)C(=O)N2C(C(=O)O)=C(COC(N)=O)CS[C@@H]21 [Cefoxitin, cefoxitin]",effect on positive signal,"MRSA; 1.8 ug/mL, most of the tested MRSA strains",produced a positive signal
same,Cefoxitin Concentration 1.4 ug/mL,"MRSA; strain AR0461 MRSA, detected CFU 140",9488 RLU
same,Cefoxitin Concentration 2 ug/mL,"MRSA; strain AR0467 MRSA, detected CFU 198",6615 RLU
same,Cefoxitin Concentration 1.8 ug/mL,"MRSA; strain AR0469 MRSA, detected CFU 473",13490 RLU
same,Cefoxitin Concentration 1.6 ug/mL,MRSA; [1],2481 RLU
same,Cefoxitin Concentration 1.8 ug/mL,MRSA; [1],2046 RLU
same,Cefoxitin Concentration 1.4 ug/mL,MRSA; [2],8601 RLU
same,Cefoxitin Concentration 1.6 ug/mL,MRSA; [2],5620 RLU
same,Cefoxitin Concentration 1.8 ug/mL,MRSA; [2],3239 RLU
same,Cefoxitin Concentration 2 ug/mL,MRSA; [2],2385 RLU
same,Cefoxitin (RLU) 1.8 ug/mL,BAA-1720 MRSA; [3],615 RLU
same,Cefoxitin (RLU) 3.6 ug/mL,BAA-1720 MRSA; [3],513 RLU
same,Cefoxitin (RLU) 5.4 ug/mL,BAA-1720 MRSA; [3],789 RLU
same,Cefoxitin (RLU) 1.8 ug/mL,BAA-1720 MRSA; [4],1711 RLU
same,Cefoxitin (RLU) 3.6 ug/mL,BAA-1720 MRSA; [4],1623 RLU
same,Cefoxitin (RLU) 5.4 ug/mL,BAA-1720 MRSA; [4],1172 RLU
same,Cefoxitin (RLU) 1.8 ug/mL,BAA-1720 MRSA; [5],3572 RLU
same,Cefoxitin (RLU) 3.6 ug/mL,BAA-1720 MRSA; [5],1469 RLU
same,Cefoxitin (RLU) 5.4 ug/mL,BAA-1720 MRSA; [5],1438 RLU
same,Cefoxitin (RLU) 1.8 ug/mL,BAA-1720 MRSA; [6],900 RLU
same,Cefoxitin (RLU) 3.6 ug/mL,BAA-1720 MRSA; [6],1068 RLU
same,Cefoxitin (RLU) 5.4 ug/mL,BAA-1720 MRSA; [6],948 RLU
same,Cefoxitin (RLU) 1.8 ug/mL,BAA-1720 MRSA; [7],3630 RLU
same,Cefoxitin (RLU) 3.6 ug/mL,BAA-1720 MRSA; [7],4720 RLU
same,Cefoxitin (RLU) 5.4 ug/mL,BAA-1720 MRSA; [7],4597 RLU
same,Cefoxitin (RLU) 1.8 ug/mL,BAA-1720 MRSA; [8],6254 RLU
same,Cefoxitin (RLU) 3.6 ug/mL,BAA-1720 MRSA; [8],3843 RLU
same,Cefoxitin (RLU) 5.4 ug/mL,BAA-1720 MRSA; [8],3381 RLU
same,Cefoxitin (RLU) 1.8 ug/mL,BAA-1720 MRSA; [9],7571 RLU
same,Cefoxitin (RLU) 3.6 ug/mL,BAA-1720 MRSA; [9],7693 RLU
same,Cefoxitin (RLU) 5.4 ug/mL,BAA-1720 MRSA; [9],5263 RLU
same,Cefoxitin (RLU) 1.8 ug/mL,BAA-1720 MRSA; [10],13210 RLU
same,Cefoxitin (RLU) 3.6 ug/mL,BAA-1720 MRSA; [10],7193 RLU
same,Cefoxitin (RLU) 5.4 ug/mL,BAA-1720 MRSA; [10],6922 RLU
same,Cefoxitin (RLU) - 2 Hour Antibiotic + 2 Hour Phage 1.8 ug/mL,12600 MSSA; detected CFU 305,600 RLU
same,Cefoxitin (RLU) - 2 Hour Antibiotic + 2 Hour Phage 3.6 ug/mL,12600 MSSA; detected CFU 305,225 RLU
same,Cefoxitin (RLU) - 2 Hour Antibiotic + 2 Hour Phage 5.4 ug/mL,12600 MSSA; detected CFU 305,244 RLU
same,Cefoxitin (RLU) - 3 Hour Antibiotic + 1 Hour Phage 1.8 ug/mL,12600 MSSA; detected CFU 305,267 RLU
same,Cefoxitin (RLU) - 3 Hour Antibiotic + 1 Hour Phage 3.6 ug/mL,12600 MSSA; detected CFU 305,198 RLU
same,Cefoxitin (RLU) - 3 Hour Antibiotic + 1 Hour Phage 5.4 ug/mL,12600 MSSA; detected CFU 305,184 RLU
same,Cefoxitin (RLU) - 2 Hour Antibiotic + 2 Hour Phage 1.8 ug/mL,12600 MSSA; detected CFU 541,1065 RLU
same,Cefoxitin (RLU) - 2 Hour Antibiotic + 2 Hour Phage 3.6 ug/mL,12600 MSSA; detected CFU 541,224 RLU
same,Cefoxitin (RLU) - 2 Hour Antibiotic + 2 Hour Phage 5.4 ug/mL,12600 MSSA; detected CFU 541,217 RLU
same,Cefoxitin (RLU) - 3 Hour Antibiotic + 1 Hour Phage 1.8 ug/mL,12600 MSSA; detected CFU 541,258 RLU
same,Cefoxitin (RLU) - 3 Hour Antibiotic + 1 Hour Phage 3.6 ug/mL,12600 MSSA; detected CFU 541,215 RLU
same,Cefoxitin (RLU) - 3 Hour Antibiotic + 1 Hour Phage 5.4 ug/mL,12600 MSSA; detected CFU 541,171 RLU
same,Cefoxitin (RLU) - 2 Hour Antibiotic + 2 Hour Phage 1.8 ug/mL,12600 MSSA; detected CFU 1083,1718 RLU
same,Cefoxitin (RLU) - 2 Hour Antibiotic + 2 Hour Phage 3.6 ug/mL,12600 MSSA; detected CFU 1083,395 RLU
same,Cefoxitin (RLU) - 2 Hour Antibiotic + 2 Hour Phage 5.4 ug/mL,12600 MSSA; detected CFU 1083,277 RLU
same,Cefoxitin (RLU) - 3 Hour Antibiotic + 1 Hour Phage 1.8 ug/mL,12600 MSSA; detected CFU 1083,415 RLU
same,Cefoxitin (RLU) - 3 Hour Antibiotic + 1 Hour Phage 3.6 ug/mL,12600 MSSA; detected CFU 1083,201 RLU
same,Cefoxitin (RLU) - 3 Hour Antibiotic + 1 Hour Phage 5.4 ug/mL,12600 MSSA; detected CFU 1083,208 RLU
same,Cefoxitin (RLU) - 2 Hour Antibiotic + 2 Hour Phage 1.8 ug/mL,12600 MSSA; detected CFU 2165,3046 RLU
same,Cefoxitin (RLU) - 2 Hour Antibiotic + 2 Hour Phage 3.6 ug/mL,12600 MSSA; detected CFU 2165,424 RLU
same,Cefoxitin (RLU) - 2 Hour Antibiotic + 2 Hour Phage 5.4 ug/mL,12600 MSSA; detected CFU 2165,331 RLU
same,Cefoxitin (RLU) - 3 Hour Antibiotic + 1 Hour Phage 1.8 ug/mL,12600 MSSA; detected CFU 2165,604 RLU
same,Cefoxitin (RLU) - 3 Hour Antibiotic + 1 Hour Phage 3.6 ug/mL,12600 MSSA; detected CFU 2165,218 RLU
same,Cefoxitin (RLU) - 3 Hour Antibiotic + 1 Hour Phage 5.4 ug/mL,12600 MSSA; detected CFU 2165,202 RLU
same,Cefoxitin (RLU) - 2 Hour Antibiotic + 2 Hour Phage 1.8 ug/mL,12600 MSSA; detected CFU 4331,5703 RLU
same,Cefoxitin (RLU) - 2 Hour Antibiotic + 2 Hour Phage 3.6 ug/mL,12600 MSSA; detected CFU 4331,563 RLU
same,Cefoxitin (RLU) - 2 Hour Antibiotic + 2 Hour Phage 5.4 ug/mL,12600 MSSA; detected CFU 4331,487 RLU
same,Cefoxitin (RLU) - 3 Hour Antibiotic + 1 Hour Phage 1.8 ug/mL,12600 MSSA; detected CFU 4331,933 RLU
same,Cefoxitin (RLU) - 3 Hour Antibiotic + 1 Hour Phage 3.6 ug/mL,12600 MSSA; detected CFU 4331,196 RLU
same,Cefoxitin (RLU) - 3 Hour Antibiotic + 1 Hour Phage 5.4 ug/mL,12600 MSSA; detected CFU 4331,194 RLU
same,Cefoxitin (RLU) - 2 Hour Antibiotic + 2 Hour Phage 1.8 ug/mL,12600 MSSA; detected CFU 8662,11570 RLU
same,Cefoxitin (RLU) - 2 Hour Antibiotic + 2 Hour Phage 3.6 ug/mL,12600 MSSA; detected CFU 8662,1224 RLU
same,Cefoxitin (RLU) - 2 Hour Antibiotic + 2 Hour Phage 5.4 ug/mL,12600 MSSA; detected CFU 8662,979 RLU
same,Cefoxitin (RLU) - 3 Hour Antibiotic + 1 Hour Phage 1.8 ug/mL,12600 MSSA; detected CFU 8662,1563 RLU
same,Cefoxitin (RLU) - 3 Hour Antibiotic + 1 Hour Phage 3.6 ug/mL,12600 MSSA; detected CFU 8662,247 RLU
same,Cefoxitin (RLU) - 3 Hour Antibiotic + 1 Hour Phage 5.4 ug/mL,12600 MSSA; detected CFU 8662,224 RLU
same,Cefoxitin (RLU) - 2 Hour Antibiotic + 2 Hour Phage 1.8 ug/mL,12600 MSSA; detected CFU 17323,22890 RLU
same,Cefoxitin (RLU) - 2 Hour Antibiotic + 2 Hour Phage 3.6 ug/mL,12600 MSSA; detected CFU 17323,2071 RLU
same,Cefoxitin (RLU) - 2 Hour Antibiotic + 2 Hour Phage 5.4 ug/mL,12600 MSSA; detected CFU 17323,1493 RLU
same,Cefoxitin (RLU) - 3 Hour Antibiotic + 1 Hour Phage 1.8 ug/mL,12600 MSSA; detected CFU 17323,2695 RLU
same,Cefoxitin (RLU) - 3 Hour Antibiotic + 1 Hour Phage 3.6 ug/mL,12600 MSSA; detected CFU 17323,255 RLU
same,Cefoxitin (RLU) - 3 Hour Antibiotic + 1 Hour Phage 5.4 ug/mL,12600 MSSA; detected CFU 17323,246 RLU
